In article PMC7564829, “Potent Broad-Spectrum Antibacterial Activity of Amphiphilic Peptides against Multidrug-Resistant Bacteria” (Microorganisms, 2020):

Key:
E. coli 1F28 [1] = test: Cytoplasmic membrane potential (DiSC3(5)); type: cell-based; settings: 0 to 128 μg/mL, 60 min
Description: A fluorescent probe DiSC3(5) (Aladdin, Shanghai, China) was utilized to evaluate the effect of WRK-12 on bacterial membrane potential. E. coli 1F28 cells were probed with 3,3′-dipropylthiadicarbocyanine iodide (DiSC3(5), 0.5 μM) for 30 min, and then treated with WRK-12 (0 to 128 μg/mL) or colistin (128 μg/mL) for 60 min. Subsequently, the dissipated membrane potential was determined by monitoring the fluorescence intensity (λexcitation = 622 nm, λemission = 670 nm) using a Microplate reader (Tecan, Männedorf, Switzerland).

E. coli B3-1 (tet(X4)) = test: MIC/MBC, broth micro-dilution; type: cell-based; settings: E. coli B3-1 (tet(X4))
Description: (§1) Experiments were performed with two biological replicates.

E. faecalis A4 (VRE) = test: MIC/MBC, broth micro-dilution; type: cell-based; settings: E. faecalis A4 (VRE)
Description: as §1

E. coli 1F28 (tet(X4)) = test: MIC/MBC, broth micro-dilution; type: cell-based; settings: E. coli 1F28 (tet(X4))
Description: as §1

E. coli 1A34 = test: MIC, tigecycline-resistant clinical isolate; type: cell-based; settings: E. coli 1A34, anal swab, tigecycline-resistant clinical isolate; broth micro-dilution
Description: as §1

E. coli 1F16 = test: MIC, tigecycline-resistant clinical isolate; type: cell-based; settings: E. coli 1F16, feces, tigecycline-resistant clinical isolate; broth micro-dilution
Description: as §1

Shigella 1F25 = test: MIC, tigecycline-resistant clinical isolate; type: cell-based; settings: Shigella 1F25, feces, broth micro-dilution
Description: as §1

E. coli 1F31 = test: MIC, tigecycline-resistant clinical isolate; type: cell-based; settings: E. coli 1F31, tigecycline-resistant clinical isolate; broth micro-dilution
Description: as §1

E. coli 2A19 = test: MIC, tigecycline-resistant clinical isolate; type: cell-based; settings: E. coli 2A19, tigecycline-resistant clinical isolate; broth micro-dilution
Description: as §1

E. coli 1C1 = test: MIC, tigecycline-resistant clinical isolate; type: cell-based; settings: E. coli 1C1, dust, tigecycline-resistant clinical isolate; broth micro-dilution
Description: as §1

E. coli 1N31 = test: MIC, tigecycline-resistant clinical isolate; type: cell-based; settings: E. coli 1N31, tigecycline-resistant clinical isolate; broth micro-dilution
Description: as §1

E. coli 1N28 = test: MIC, tigecycline-resistant clinical isolate; type: cell-based; settings: E. coli 1N28, nasal swab, tigecycline-resistant clinical isolate; broth micro-dilution
Description: as §1

E. coli 2W25 = test: MIC, tigecycline-resistant clinical isolate; type: cell-based; settings: E. coli 2W25, water, tigecycline-resistant clinical isolate; broth micro-dilution
Description: as §1

pepsin = pepsin 10 mg/mL, 1 h preincubation; residual MIC against E. coli 1F28
Description: Thermal, pH and proteolytic stability. WRK-12 was preincubated at different temperatures (from 25 to 121 °C), pH (from 2 to 12) or proteases (pepsin, trypsin and papain, final concentration 10 mg/mL) for 1 h. Samples after pH treatment were readjusted to pH = 7.2 to determine the residual antibacterial activity by MIC tests. Samples after proteases treatment were heated at 80 °C for 30 min, and centrifuged at 13,000× g for 30 min to precipitate proteases, and the residual antibacterial activity of supernatants was tested by MIC analysis.

[2] = Hydrophobicity by RP-HPLC (percent acetonitrile at elution); type: physicochemical; settings: acetonitrile in water, 0.1% (v/v) TFA, higher percent = higher hydrophobicity
Description: All peptides used in this study were synthesized by GL Biochem (Shanghai, China) using a solid phase peptide synthesis (SPPS) method, and their accurate molecular weights were determined by matrix-assisted laser desorption/ionization time-of-flight mass spectrometry (MALDI-TOF MS). The peptide purity (>95%) and retention time were determined by reversed-phase high-performance liquid chromatography (HPLC).
A collection of tryptophan-rich linear peptides on the basis of MP196 (RWRWRW-NH2) was designed by increasing peptide length or positive charge or hydrophobicity, replacing amino acids and/or N-terminal acetylation (Table 1). These peptides were synthesized via solid-phase peptide synthesis (SPPS), purified by reverse-phase high-performance liquid chromatography (RP-HPLC) (Figure S1) and validated by matrix-assisted laser desorption/ionization time-of-flight mass spectrometry (MALDI-TOF MS) (Figure S2). […] All engineered peptides belong to cationic AMPs, with 3 or 6 net charges. The percentage of acetonitrile at RP-HPLC elution was regarded as a relative measure of peptides’ hydrophobicity. […] The hydrophobicity order was listed as follows: WRK-12 > WL-9 > WR-6 > WV-9 > KW-6 > WKK-12 > WR-12 > MP196 > WK-6.

E. coli 1F28 [3] = test: ROS measurements (DCFH-DA); type: cell-based; settings: 0 to 128 μg/mL, 60 min
Description: 2′,7′-Dichlorodihydrofluorescein diacetate (DCFH-DA, 10 μM) was incubated with E. coli 1F28 cells for 30 min. After washing with 0.01 M PBS, the probed cells were mixed with WRK-12 (0 to 128 μg/mL) or colistin (128 μg/mL) for 60 min. The ROS levels were assessed by monitoring the fluorescence intensity (λexcitation = 488 nm, λemission = 525 nm) using a Microplate reader (Tecan, Männedorf, Switzerland).

E. coli 1F28 biofilm = test: Prevention of biofilm formation (crystal violet); type: cell-based; settings: 24 h
Description: The prevention of biofilm formation was assessed as described previously. Briefly, bacteria (1 × 10^5 CFUs per mL) were exposed to WRK-12 solutions (with final concentrations ranging from 0.25 to 32 μg/mL). As an untreated control, bacteria were exposed to MHB without drugs. After 24 h incubation at 37 °C in a humidified atmosphere, planktonic bacteria were removed by phosphate buffer solution (PBS). Biofilms were fixed with methanol for 15 min, then sucked out the fixative and air dry naturally. Then, biofilms were stained with 0.1% crystal violet for 15 min, washed and dried naturally. Finally, 33% acetic acid was used to dissolve crystal violet. The optical density at 570 nm was determined as a measure of biofilm mass.

MRSA T144 = test: MIC/MBC, broth micro-dilution; type: cell-based, Staphylococcus aureus; settings: MRSA T144
Description: as §1

[4] = broth micro-dilution CLSI 2018, MHB, 18 h, 37 °C
[5] = lowest concentration killing 99.9%, plated on MHA

Ac-WRLRWKTRWRLK-NH2 [WRK-12]
membrane potential (ΔΨ), DiSC3(5) fluorescence (E. coli 1F28 [1]): significantly dissipated membrane potential
MIC (E. coli B3-1 (tet(X4)); [4]): 2 µg/mL
MBC (E. coli B3-1 (tet(X4)); [5]): 2 µg/mL
MIC (E. faecalis A4 (VRE); [4]): 4 µg/mL
MBC (E. faecalis A4 (VRE); [5]): 8 µg/mL
MIC (E. coli 1F28 (tet(X4)); [4]): 2 µg/mL
MBC (E. coli 1F28 (tet(X4)); [5]): 8 µg/mL
MIC (E. coli 1A34): 2 µg/mL
MIC (E. coli 1F16): 4 µg/mL
MIC (Shigella 1F25): 8 µg/mL
MIC (E. coli 1F31): 4 µg/mL
MIC (E. coli 2A19): 16 µg/mL
MIC (E. coli 1C1): 4 µg/mL
MIC (E. coli 1N31): 16 µg/mL
MIC (E. coli 1N28): 8 µg/mL
MIC (E. coli 2W25): 4 µg/mL
proteolytic stability (pepsin): resistant
H (hydrophobicity, percent of acetonitrile at HPLC elution) [2]: 36.513 percent acetonitrile
ROS production, DCFH-DA fluorescence (E. coli 1F28 [3]): triggered the production of ROS in a concentration-dependent manner
inhibition of biofilm formation (E. coli 1F28 biofilm; 0.5 μg/mL, 37 °C, crystal violet OD570): significant inhibition effect
biofilm mass (E. coli 1F28 biofilm; 2 μg/mL or higher, crystal violet staining): drastically reduced
MIC (MRSA T144; [4]): 2 µg/mL
MBC (MRSA T144; [5]): 2 µg/mL
